{"source": "patent US7022721B1", "about": "“Method and composition for rejuvenating cells, tissues, organs, hair and nails” (priority 2001, dated 2006)", "key": {"[1]": {"system": "Non-enzymatically browned BSA (AGE-BSA) coupled to Collagen Type-I coated plates", "experiment": "Assay of Uncoupling Activity on non-enzymatically browned BSA coupled to collagen coated plates (ELISA)", "format": "biochemical", "settings": "for % uncoupling at 10 mM, 2 days / % uncoupling at 20 mM, 1 day: sugar-mediated coupling of albumen to collagen; for % uncoupling at 5 mM, 1 day: naphthothiazolium test compounds", "description": "Assay of Uncoupling Activity on Non-Enzymattically Browned BSA Coupled to Collagen Coated Plates\nEquipment, Reagents, and Other Materials\nMix equal volume of BSA (50 mg/ml in 1×PBS) and glucose (0.5 M in PBS); keep the solution (after filtered through a 0.22 µm filter and placed in a capped bottle) in a 37° C. incubator for 5 weeks.\nRemove an aliquot of the solution and dialyze against 500-fold volume of PBS, with 4 changes of buffer within 2 days. Collect the solution, as AGE-BSA, from dialysis bag and determine the protein concentration. […] During this hour, • Rinse the plate washer with autoclaved dH2O and then flush 3 times with PBS-Tween washing buffer containing 0.05% of Tween-20. • Dilute AGE-BSA in 1×PBS to 0.03 g/l. […] (Record the hours of incubation.) • In the meantime, run maintenance program (Overnight rinse/soak) on the plate washer using autoclaved distilled H2O. • After incubation, flush the plate washer 3 times with PBS-Tween washing buffer. • Wash the plate 4 times with 1×PBS buffers containing 0.2% Tween-20. • Wash 6 more times with PBS-0.05% Tween washing buffer in two directions, 3 times/direction. • Prepare 1:8000 dilution (in 1×PBS) of anti-BSA antibody (rabbit IgG-HRP) • Add 50 1 of diluted antibody to the wells, incubate at room temperature for 30 min. • Wash 8 times with PBS-0.05% Tween washing buffer in two directions, 4 times/direction. • Add 100 1 of TMB substrate solution to the wells; incubate at RT for 15 min. • Stop the reaction by adding 100 1 of 2 M H2SO4. • Read absorbance at 450 nm in an ELISA plate reader. • Plot and analyze data."}, "[2]": {"experiment": "Hair stress vs. strain relationship (stiffness) before and after treatment", "text": "Methodology for Determination of Hair Stress vs. Strain Relationship (Stiffness).\nThe distensibility (i.e, elasticity, rigidity, shear, tensile strength, compression, etc.) of hair, nails, tendons, etc. can be easily determined using widely available commercial devices, such as manufactured by Instron. Alternatively, other test methods known to a practitioner of the art may be employed.\nThe test assay for determining whether hair has been “rejuvenated” for the present invention is the following. Individual scalp hairs were cemented into the ends of glass capillary tubes such that several centimeters of the shaft protruded from the end. This hair was then trimmed to extend 18 mm from the end of the tube. […] Thus, this determination of stress vs strain of bending assessed elasticity, compressibility, and shear of each hair shaft. Each hair served as its own control, with baseline and post-treatment properties assessed and directly compared.\nA 1 mm thick plate with a 0.5 mm diameter hole drilled through was attached to the surface of an isometric strain gauge. […] The force required to bend each hair a specified distance was determined over a wide range of displacements. […] For purposes of the present invention, the term “rejuvenated” hair shall mean an improvement of at least 20% in the measured values of the treated hair, toward the values seen in young, undamaged hair (i.e. healthy human). […]"}}, "note": "Several values for one entry are separate records, joined by “and”; a condition that tells them apart may be missing. Equal entries are not always repeated. Structures can show the parent of a compound that is named as a salt.", "data": [{"compound": "CC(O)c1scc[n+]1CC(=O)N1CCCC1.[Cl-]", "note": "(stereo not shown) [2-(1-hydroxyethyl)-3-[2-oxo-2-(1-pyrrolidinyl)ethyl]thiazolium chloride]", "values": [{"measurement": "% uncoupling at 10 mM, 2 days", "setting": "[1]; 10 mM", "result": 32, "unit": "%"}]}, {"compound": "N#CCc1cccc[n+]1CC(=O)N1CCCC1.[Cl-]", "values": [{"measurement": "melting point", "result": "130 to 132", "unit": "°C"}]}, {"compound": "Cc1sc[n+](CC(=O)c2ccccc2)c1C.[Cl-]", "note": "[4,5-Dimethyl-3-(2-oxo-2-phenylethyl)thiazolium chloride, reference compound]", "values": [{"measurement": "% uncoupling at 10 mM, 2 days", "setting": "[1]; 10 mM", "result": 52, "unit": "%"}, {"measurement": "% uncoupling at 20 mM, 1 day", "setting": "[1]; 1 day", "result": 39, "unit": "%"}]}, {"compound": "CCc1scc(C)[n+]1CC(=O)c1ccccc1.[Br-]", "note": "[2-Ethyl-4-methyl-3-(2-oxo-2-phenylethyl)thiazolium bromide]", "values": [{"measurement": "% uncoupling at 20 mM, 1 day", "setting": "[1]; 1 day", "result": 57, "unit": "%"}]}, {"compound": "Cc1c(O)c2ccccc2c2c1sc(=NC(C)C)n2CCCN(C)C.Cl.Cl", "note": "[1,2-dihydro-1-[3-(dimethylamino)propyl]-4-methyl-2-[(1-methylethyl)imino]naphtho[1,2-d]thiazol-5-ol dihydrochloride]", "values": [{"measurement": "% uncoupling at 5 mM, 1 day", "setting": "[1]; 1 day", "result": 19, "unit": "%"}]}, {"compound": "Cc1c(O)c2ccccc2c2c1sc(NC1CCCCC1)[n+]2CCCN1CCOCC1", "note": "[2-(Cyclohexylimino)-1,2-dihydro-4-methyl-1-[3-(4-morpholino)propyl]naphtho[1,2-d]thiazol-5-ol dihydrochloride]", "values": [{"measurement": "% uncoupling at 5 mM, 1 day", "setting": "[1]; 1 day", "result": 22, "unit": "%"}]}, {"compound": "CC1OC(=O)C[n+]2ccsc21.[Br-]", "note": "(stereo not shown) [5,6-Dihydro-8-methyl-6-oxo-8H-thiazolo[2,3-c](1,4)oxazin-4-ium bromide]", "values": [{"measurement": "% uncoupling, 1 day (footnote a: at 30 mM)", "setting": "[1]; 1 day", "result": "36^a %"}, {"measurement": "melting point", "result": "214 to 215.5", "unit": "°C"}]}, {"compound": "CC(=O)OC(C)c1scc[n+]1CC(=O)c1ccccc1.[Br-]", "note": "(stereo not shown) [3-[2-Oxo-2-phenylethyl]-2-(1-acetoxyethyl)thiazolium bromide]", "values": [{"measurement": "% uncoupling at 20 mM, 1 day", "setting": "[1]; 1 day", "result": 52, "unit": "%"}]}, {"compound": "Cc1sc2[n+](c1C)C=C(c1ccccc1)OC2C.[Br-]", "note": "(stereo not shown) [2,3,8-Trimethyl-6-phenyl-8H-thiazolo[2,3-c](1,4)oxazin-4-ium bromide]", "values": [{"measurement": "% uncoupling at 20 mM, 1 day", "setting": "[1]; 1 day", "result": 34, "unit": "%"}]}, {"compound": "CC(=O)OC(C)c1scc[n+]1CC(=O)N1CCCC1.[Br-]", "note": "(stereo not shown) [3-[2-Oxo-2-(1-pyrrolidinyl)ethyl]-2-(1-acetoxyethyl)thiazolium bromide]", "values": [{"measurement": "% uncoupling at 20 mM, 1 day", "setting": "[1]; 1 day", "result": 46, "unit": "%"}]}, {"compound": "Cc1nc2c(c[n+]1CC(=O)c1ccccc1)CNC(=O)N2.[Br-]", "note": "[2-Methyl-3-(2-oxo-2-phenylethyl)-7-oxo-5,6,7,8-tetrahydropyrimidino [4,5-d]pyrimidin-3-ium bromide]", "values": [{"measurement": "% uncoupling, 1 day (footnote a: at 30 mM)", "setting": "[1]; 1 day", "result": "22^a %"}]}, {"compound": "Cc1csc(C)[n+]1CC(=O)c1ccccc1.[Br-]", "note": "[2,4-Dimethyl-3-(2-oxo-2-phenylethyl)thiazolium bromide]", "values": [{"measurement": "% uncoupling at 10 mM, 2 days", "setting": "[1]; 10 mM", "result": 36, "unit": "%"}, {"measurement": "% uncoupling at 20 mM, 1 day", "setting": "[1]; 1 day", "result": 51, "unit": "%"}]}, {"compound": "CCN=c1sc2c(C)c(O)c3ccccc3c2n1CC.Cl", "note": "[1-ethyl-2-(ethylimino)-1,2-dihydro-4-methylnaphtho[1,2-d]thiazol-5-ol monohydrochloride]", "values": [{"measurement": "% uncoupling at 5 mM, 1 day", "setting": "[1]; 1 day, monohydrochloride", "result": "59% and 58%"}, {"measurement": "stiffness of hair after treatment", "setting": "[2]; FIG. 1", "result": "decreases the stiffness of hair"}, {"measurement": "resulting stress less than before treatment (hair stiffness)", "setting": "[2]; hair immersed in 10 mM solution for 15 minutes, strain greater than about 0.06", "result": "about 50%"}]}, {"compound": "CC(O)c1scc[n+]1CC(=O)c1ccccc1.[Br-]", "note": "(stereo not shown) [3-(2-Oxo-2-phenylethyl)-2-(1-hydroxyethyl)thiazolium bromide]", "values": [{"measurement": "% uncoupling at 10 mM, 2 days", "setting": "[1]; 10 mM", "result": 54, "unit": "%"}]}, {"compound": "Cc1sc(C(C)O)[n+](CC(=O)c2ccccc2)c1C.[Br-]", "note": "(stereo not shown) [4,5-dimethyl-2-(1-hydroxyethyl)-3-(2-oxo-2-phenylethyl)thiazolium bromide]", "values": [{"measurement": "% uncoupling at 20 mM, 1 day", "setting": "[1]; 1 day", "result": 45, "unit": "%"}, {"measurement": "melting point", "result": "174 to 176", "unit": "°C"}]}, {"compound": "Cc1c(O)c2ccccc2c2nc(NCCCN3CCOCC3)sc12", "note": "[4-Methyl-2-[[3-(4-morpholino)propyl]amino]naphtho[1,2-d]thiazol-5-ol dihydrochloride]", "values": [{"measurement": "% uncoupling at 5 mM, 1 day", "setting": "[1]; 1 day", "result": 36, "unit": "%"}]}, {"compound": "O=C(Cn1cc[n+](CC(=O)c2ccccc2)c1)c1ccccc1.[Br-]", "note": "[1,3-bis(2-oxo-2-phenylethyl)imidazolium bromide]", "values": [{"measurement": "% uncoupling, 1 day (footnote b: at 10 mM)", "setting": "[1]; 10 mM, 1 day", "result": "25^b %"}]}, {"compound": "CC(OC(=O)c1ccccc1)c1scc[n+]1CC(=O)c1ccccc1.[Br-]", "note": "(stereo not shown) [3-(2-Oxo-2-phenylethyl)-2-(1-benzoyloxyethyl)thiazolium bromide]", "values": [{"measurement": "% uncoupling at 20 mM, 1 day", "setting": "[1]; 1 day", "result": 68, "unit": "%"}]}, {"compound": "Cc1c(O)c2ccccc2c2c1sc(NC1CCCCC1)[n+]2CCCN1CCN(C)CC1.[Cl-]", "note": "[2-(Cyclohexylimino)-1,2-dihydro-4-methyl-1-[3-(4-methyl-1-piperazinyl)propyl]naphtho[1,2-d]thiazol-5-ol trihydrochloride]", "values": [{"measurement": "% uncoupling at 5 mM, 1 day", "setting": "[1]; 1 day", "result": 21, "unit": "%"}]}, {"compound": "CC(O)c1scc[n+]1CC(=O)O", "note": "(stereo not shown) [3-carboxymethyl-2-(1-hydroxyethyl)thiazole]", "values": [{"measurement": "% uncoupling at 20 mM, 1 day", "setting": "[1]; 1 day", "result": 47, "unit": "%"}]}, {"compound": "N#CCc1cccc[n+]1CC(=O)N1CCCC1.[Br-]", "note": "[1-[2-(1-pyrrolidinyl)-2-oxoethyl]-2-(cyanomethyl)pyridinium bromide]", "values": [{"measurement": "% uncoupling at 10 mM, 2 days", "setting": "[1]; 10 mM", "result": 68, "unit": "%"}]}, {"compound": "O=C(C[n+]1ccccc1Cc1ccccc1)c1ccccc1.[Br-]", "note": "[2-benzyl-1-(2-oxo-2-phenylethyl)pyridinium bromide]", "values": [{"measurement": "% uncoupling at 20 mM, 1 day", "setting": "[1]; 1 day", "result": 54, "unit": "%"}]}]}
